Legend:
OVA antigen = assay: IgG titer with OVA antigen (indirect ELISA, immunized mice); format: in vivo, BALB/c mice
Protocol: (§1) Adjuvanticity of 15b was evaluated using antigens (OVA, HBsAg, DENV and JEV) in BALB/c mice model—From the immunized mice retro-orbital sampling or retro-orbital blood was collected on 14th and 28th day before sacrifice. Serum was separated by centrifugation at 12,500 rpm for 5 min. Transferred to a clean centrifuge tube and store at −80 until used.
(§2) The plates were coated with antigen in carbonate buffer. Plates were incubated at 4° C. overnight. They were then washed 3 times with PBS/Tween, and non-specific binding sites were blocked by adding 200 μl of blocking solution. Plates were incubated at room temperature for 1 h. Then 3 times wash is done, diluted standards and samples to desired concentrations in blocking solution were added to the plates. Incubate at 37° C. for 1 h or at 4° C. overnight. Plates were washed 3 times with PBS/Tween. Avidin-Horseradish Peroxidase (Av-HRP) was diluted and added. Incubated at room temperature for 30 min. Plates were washed 3 times with PBS/Tween. OPD Substrate was added and plates were incubated at room temperature (4-30 min) for colour development. The colour reaction was stopped by adding 50 μl of stop solution. Optical density (OD) was read at 492 nm.

JEV antigen = assay: IgG titer with JEV antigen; format: in vivo, BALB/c mice
Protocol: as §1, §2

[1] = test system: cytokines IL-1, IL-2, IL-4, IFN, IL-6, IL-10, IL-12, TNF; assay: Post JEV immunization In vivo cytokine assay; set-up: species or system BALB/c mice
Protocol: ELISA was carried out by Bio Legend capture and detection antibodies. Briefly, 96-well plates were coated with capture antibody dissolved in coating buffer per well incubated overnight at 4° C. Wells were blocked with BSA for 1 h at RT. After blocking, 50 μL/well of serum was added and incubated for 3 h. After washing, Biotinylated secondary antibody was added along with enzyme. Plates were incubated for 1 h at RT. Then plates were washed and TMB substrate solution was added. The reaction was stopped after 30 min with a stopping solution. Absorbance was measured at 450 nm with a plate reader.

In vitro Hemolysis assay = conditions: even at higher concentrations
splenocytes = assay: Post JEV immunization In vivo splenocyte proliferation assay; set-up: species or system BALB/c mice
Protocol: Splenocytes were seeded into 96-well flat-bottom microtiter plates having 1×10^5 cells/well in […] complete RPMI-1640 medium. Plates were incubated at 37° C. with 5% CO2. After 48 h, […] MTT solution (5 mg/mL) was added to each well and left to incubate for next 4 h. Untransformed MTT ([…]) was removed from each well by pipetting. A total of […] of DMSO was added and the absorbance was evaluated in an ELISA reader at 630 nm on the multimode reader (Infinite 200 Pro, Switzerland) after 15 min

[2] = test system: antigens (OVA, HBsAg, DENV and JEV); assay: Serum anti-antigens (OVA, HBsAg, DENV and JEV) IgG titer, overall statements; format: in vivo, BALB/c mice; conditions: 15b against Ovalbumin, DEV, 15f against JEV
Protocol: as §1, §2

## CCCCCCCC(=O)OCCCCCCCC(=O)N[C@H]1C(O)O[C@H](CO)[C@@H](O)[C@@H]1O[C@H](C)C(=O)N[C@@H](C)C(=O)N[C@H](CCC(=O)O)C(N)=O (stereo partly drawn) [15 h, (4R)-5-amino-4-((2S)-2-((2R)-2-(((3R,4R,5S,6R)-2,5-dihydroxy-6-(hydroxymethyl)-3-(8-(octanoyloxy)octanamido)tetrahydro-2H-pyran-4-yl)oxy)propanamido)propanamido)-5-oxopentanoic acid]
OVA antigen; dose 1 μg
  IgG titer with OVA antigen: 8750-64000
OVA antigen; dose 10 μg
  IgG titer with OVA antigen: 10000-50000
OVA antigen; dose 100 μg
  IgG titer with OVA antigen: 3750-25000

## C[C@H](NC(=O)[C@@H](C)O[C@H]1[C@H](O)[C@@H](CO)OC(O)[C@@H]1NC(=O)C1CCC1)C(=O)N[C@H](CCC(=O)O)C(N)=O (stereo partly drawn) [15c, (4R)-5-amino-4-((2S)-2-((2R)-2-(((3R,4R,5S,6R)-3-(cyclobutanecarboxamido)-2,5-dihydroxy-6-(hydroxymethyl)tetrahydro-2H-pyran-4-yl)oxy)propanamido)propanamido)-5-oxopentanoic acid]
OVA antigen; dose 1 μg
  IgG titer with OVA antigen: 25000-102400
OVA antigen; dose 10 μg
  IgG titer with OVA antigen: 10000-85000
OVA antigen; dose 100 μg
  IgG titer with OVA antigen: 5500-75000

## C[C@H](NC(=O)[C@@H](C)O[C@H]1[C@H](O)[C@@H](CO)OC(O)[C@@H]1NC(=O)C1CCCC1)C(=O)N[C@H](CCC(=O)O)C(N)=O (stereo partly drawn) [15d, (4R)-5-amino-4-((2S)-2-((2R)-2-(((3R,4R,5S,6R)-3-(cyclopentanecarboxamido)-2,5-dihydroxy-6-(hydroxymethyl)tetrahydro-2H-pyran-4-yl)oxy)propanamido)propanamido)-5-oxopentanoic acid]
OVA antigen; dose 1 μg
  IgG titer with OVA antigen: 3200-12400
OVA antigen; dose 10 μg
  IgG titer with OVA antigen: 3200-41600
OVA antigen; dose 100 μg
  IgG titer with OVA antigen: 6400-84000

## C[C@H](NC(=O)[C@@H](C)O[C@H]1[C@H](O)[C@@H](CO)OC(O)[C@@H]1NC(=O)C1CCCCC1)C(=O)N[C@H](CCC(=O)O)C(N)=O (stereo partly drawn) [15e, (4R)-5-amino-4-((2S)-2-((2R)-2-(((3R,4R,5S,6R)-3-(cyclohexanecarboxamido)-2,5-dihydroxy-6-(hydroxymethyl)tetrahydro-2H-pyran-4-yl)oxy)propanamido)propanamido)-5-oxopentanoic acid]
OVA antigen; dose 1 μg
  IgG titer with OVA antigen: 1600-12400
OVA antigen; dose 10 μg
  IgG titer with OVA antigen: 1600-41600
OVA antigen; dose 100 μg
  IgG titer with OVA antigen: 12800-96000

## CCCCCCCCCCCCCC(=O)OCCCCCCCC(=O)N[C@H]1C(O)O[C@H](CO)[C@@H](O)[C@@H]1O[C@H](C)C(=O)N[C@@H](C)C(=O)N[C@H](CCC(=O)O)C(N)=O (stereo partly drawn) [15f, (4R)-5-amino-4-((2S)-2-((2R)-2-(((3R,4R,5S,6R)-2,5-dihydroxy-6-(hydroxymethyl)-3-(8-(tetradecanoyloxy)octanamido)tetrahydro-2H-pyran-4-yl)oxy)propanamido)propanamido)-5-oxopentanoic acid]
JEV antigen; dose 5 μG (Table 21)
  IgG titer with JEV antigen: 80000-160000
JEV antigen; dose 20 μG (Table 21)
  IgG titer with JEV antigen: 160000-640000
JEV antigen; dose 50 μG (Table 21)
  IgG titer with JEV antigen: 640000-9560000
[1]; dose 5 μG (Table 24)
  TNF: 624 to 654 pg/mL
[1]; dose 5 μG (Tables 22, 24)
  IL-1: 745 to 845 pg/mL
  IL-2: 41 to 52 pg/mL
  IL-4: 134 to 155 pg/mL
  IL-10: 243 to 294 pg/mL
  IL-12: 124 to 147 pg/mL
[1]; dose 20 μG (Table 24)
  TNF: 898 to 942 pg/mL
[1]; dose 20 μG (Tables 22, 24)
  IL-1: 1059 to 1124 pg/mL
  IL-2: 52 to 64 pg/mL
  IL-4: 138 to 146 pg/mL
  IL-10: 398 to 421 pg/mL
  IL-12: 175 to 194 pg/mL
[1]; dose 50 μG (Table 24)
  TNF: 1024 to 1124 pg/mL
[1]; dose 50 μG (Tables 22, 24)
  IL-1: 1487 to 1634 pg/mL
  IL-2: 69 to 76 pg/mL
  IL-4: 148 to 164 pg/mL
  IL-10: 424 to 487 pg/mL
  IL-12: 136 to 147 pg/mL
In vitro Hemolysis assay
  toxicity and hemolysis, conclusion in words: non-toxic and non-hemolytic
splenocytes; dose 5 μG (Table 25)
  Splenocyte proliferation, Con A: 125-141
  Splenocyte proliferation, JEV: 139-147
  Splenocyte proliferation, LPS: 124-134
splenocytes; dose 20 μG (Table 25)
  Splenocyte proliferation, Con A: 134-142
  Splenocyte proliferation, JEV: 149-162
  Splenocyte proliferation, LPS: 128-137
splenocytes; dose 50 μG (Table 25)
  Splenocyte proliferation, Con A: 245-264
  Splenocyte proliferation, LPS: 184-192
[2]
  antibody titer, conclusion in words: significant antibody titer
OVA antigen; dose 1 μg
  IgG titer with OVA antigen: 8000-25400
OVA antigen; dose 10 μg
  IgG titer with OVA antigen: 5000-41600
OVA antigen; dose 100 μg
  IgG titer with OVA antigen: 200000-960000

## CCCCCCCCCCCC(=O)OCCCCCCCC(=O)N[C@H]1C(O)O[C@H](CO)[C@@H](O)[C@@H]1O[C@H](C)C(=O)N[C@@H](C)C(=O)N[C@H](CCC(=O)O)C(N)=O (stereo partly drawn) [15g, (4R)-5-amino-4-((2S)-2-((2R)-2-(((3R,4R,5S,6R)-3-(8-(dodecanoyloxy)octanamido)-2,5-dihydroxy-6-(hydroxymethyl)tetrahydro-2H-pyran-4-yl)oxy)propanamido)propanamido)-5-oxopentanoic acid]
OVA antigen; dose 1 μg
  IgG titer with OVA antigen: 25000-124000
OVA antigen; dose 10 μg
  IgG titer with OVA antigen: 10000-60000
OVA antigen; dose 100 μg
  IgG titer with OVA antigen: 5000-35000

## C[C@H](NC(=O)[C@@H](C)O[C@H]1[C@H](O)[C@@H](CO)OC(O)[C@@H]1NC(=O)C1CCCO1)C(=O)N[C@H](CCC(=O)O)C(N)=O (stereo partly drawn) [15i, (4R)-5-amino-4-((2S)-2-((2R)-2-(((3R,4R,5S,6R)-2,5-dihydroxy-6-(hydroxymethyl)-3-(tetrahydrofuran-2-carboxamido)tetrahydro-2H-pyran-4-yl)oxy)propanamido)propanamido)-5-oxopentanoic acid]
OVA antigen; dose 1 μg
  IgG titer with OVA antigen: 4800-50000
OVA antigen; dose 10 μg
  IgG titer with OVA antigen: 102400-560000
OVA antigen; dose 100 μg
  IgG titer with OVA antigen: 119466-484000

B1: OVA (protein, UniProt P01012 2-386, looked up)
Ovalbumin: GSIGAASMEFCFDVFKELKVHHANENIFYCPIAIMSALAMVYLGAKDSTRTQINKVVRFDKLPGFGDSIEAQCGTSVNVHSSLRDILNQITKPNDVYSFSLASRLYAEERYPILPEYLQCVKELYRGGLEPINFQTAADQARELINSWVESQTNGIIRNVLQPSSVDSQTAMVLVNAIVFKGLWEKAFKDEDTQAMPFRVTEQESKPVQMMYQIGLFRVASMASEKMKILELPFASGTMSMLVLLPDEVSGLEQLESIINFEKLTEWTSSNVMEERKIKVYLPRMKMEEKYNLTSVLMAMGITDVFSSSANLSGISSAESLKISQAVHAAHAEINEAGREVVGSAEAGVDAASVSEEFRADHPFLFCIKHIATNAVLFFGRCVSP
OVA antigen; OVA 100 μg alone
  IgG titer with OVA antigen: 6400-12800
